The NIST ThermoML archive (doi:10.1021/acs.jced.6b00031)
± gives the expanded uncertainty stated by the source.

Experiment: wn = mass fraction of the nth substance listed
Details: 101.3 kPa, Liquid, Vibrating tube method

| mass density (283.15 K, w1 = 0.0569) [kg/m3] | mass density (303.15 K, w1 = 0.1084) [kg/m3] | mass density (313.15 K, w1 = 0.1419) [kg/m3] | mass density (283.15 K, w1 = 0.0695) [kg/m3] | mass density (303.15 K, w1 = 0.1382) [kg/m3] | mass density (313.15 K, w1 = 0.1853) [kg/m3] | SMILES |
| --- | --- | --- | --- | --- | --- | --- |
| 836.8 ± 0.5 | 843.8 ± 0.5 | 868.6 ± 0.5 |  |  |  | O=C(O)CCC(=O)O [butanedioic acid] + CCO |
|  |  |  | 837.4 ± 0.5 | 852.3 ± 0.5 | 870.4 ± 0.5 | O=C(O)CCCCC(=O)O [1,6-hexanedioic acid] + CCO |
